Our source for the binding and Kd values is article PMC11511665 (2024).

In general, Kd refers to a measure of binding affinity in units of concentration. High values mean a looser complex, low ones a tighter complex.

For assay [1], the system named is Clivia (R8 aptamer, GAAA tetraloop) (RNA, aptamer) GGAAGAUUGUAAACAUGCCGAAAGGCAGACACUUCC
Put plainly: X-ray crystallography. The settings on record: Mg2+ (0.05 M MgCl2); 0.1 M HEPES pH 7.5, 30% PEG MME 550, 16 °C.

For assay [2], the system named is M7 (A15G/G28A) (RNA, aptamer) GGAAGAUUGUAAACGUGCCGAAAGGCAAACACUUCC
Put plainly: fluorescence activation. The settings on record: 100 mM KCl, 5 mM MgCl2; 40 mM HEPES pH 7.4; 1 μM fluorophore, 5 μM RNA.

Assay [3] relates to M11 (add 2bp in P1; Ad-2bp-P1) (RNA, aptamer) GGGGAAGAUUGUAAACAUGCCGAAAGGCAGACACUUCCCC
Put plainly: fluorescence titration, Hill fit. As to conditions: 100 mM KCl, 5 mM MgCl2; 40 mM HEPES pH 7.4; 20 nM RNA.

Assay [4] has as its system M10 (delete 2bp in P1; Del-2bp-P1) (RNA, aptamer) GAGAUUGUAAACAUGCCGAAAGGCAGACACUC
In words: fluorescence titration, Hill fit. As to conditions: 100 mM KCl, 5 mM MgCl2; 40 mM HEPES pH 7.4; 20 nM RNA.

For assay [5], the system named is M13 (add 2bp in P2; Ad-2bp-P2) (RNA, aptamer) GGAAGAUUGUAAACAUGCCGCGAAAGCGGCAGACACUUCC
In words: fluorescence titration, Hill fit. As to conditions: 100 mM KCl, 5 mM MgCl2; 40 mM HEPES pH 7.4; 20 nM RNA.

For assay [6], the system named is Clivia (R8 aptamer, GAAA tetraloop) (RNA, aptamer) GGAAGAUUGUAAACAUGCCGAAAGGCAGACACUUCC
In words: fluorescence titration, Hill fit. As to conditions: 100 mM KCl, 5 mM MgCl2; 40 mM HEPES pH 7.4; 20 nM RNA.

The subject of assay [7] is M1 (delete U7; Del-U7) (RNA, aptamer) GGAAGAUGUAAACAUGCCGAAAGGCAGACACUUCC
In words: fluorescence activation. The settings on record: 100 mM KCl, 5 mM MgCl2; 40 mM HEPES pH 7.4; 1 μM fluorophore, 5 μM RNA.

The test system of assay [8] is Clivia_III (III_R8) (RNA, aptamer) GGAAGAUUGUAAACAGCGAGAUUGUAAACAGCGAGAUUGUAAACAUGCCGAAAGGCAGACACUCGCGACACUCGCGACACUUUC
Put plainly: X-ray crystallography. As to conditions: 0.2 M MgCl2; 20% PEG 3350, 16 °C.

For assay [9], the system named is Clivia_II (II_R8) (RNA, aptamer) GGAAGAUUGUAAACAGCGAGAUUGUAAACAUGCCGAAAGGCAGACACUCGCGACACUUUC
Put plainly: fluorescence activation. The settings on record: 100 mM KCl, 5 mM MgCl2; 40 mM HEPES pH 7.4.

Assay [10] has as its system Clivia_V (V_R8) (RNA, aptamer) GGAAGAUUGUAAACAGCGAGAUUGUAAACAGCGAGAUUGUAAACAGCGAGAUUGUAAACAGCGAGAUUGUAAACAUGCCGAAAGGCAGACACUCGCGACACUCGCGACACUCGCGACACUCGCGACACUUUC
In words: fluorescence activation. As to conditions: 100 mM KCl, 5 mM MgCl2; 40 mM HEPES pH 7.4.

Assay [11] has as its system U7A (RNA, aptamer) GGAAGAAUGUAAACAUGCCGAAAGGCAGACACUUCC
In words: fluorescence titration, Hill fit. The settings on record: 100 mM KCl, 5 mM MgCl2; 40 mM HEPES pH 7.4; 20 nM RNA.

For assay [12], the system named is Clivia_IV (IV_R8) (RNA, aptamer) GGAAGAUUGUAAACAGCGAGAUUGUAAACAGCGAGAUUGUAAACAGCGAGAUUGUAAACAUGCCGAAAGGCAGACACUCGCGACACUCGCGACACUCGCGACACUUUC
In words: fluorescence activation. As to conditions: 100 mM KCl, 5 mM MgCl2; 40 mM HEPES pH 7.4.

The subject of assay [13] is M4 (A11U/A12U/A13U) (RNA, aptamer) GGAAGAUUGUUUUCAUGCCGAAAGGCAGACACUUCC
In words: fluorescence activation. The settings on record: 100 mM KCl, 5 mM MgCl2; 40 mM HEPES pH 7.4; 1 μM fluorophore, 5 μM RNA.

Assay [14] concerns M8 (G28U) (RNA, aptamer) GGAAGAUUGUAAACAUGCCGAAAGGCAUACACUUCC
In words: fluorescence activation. As to conditions: 100 mM KCl, 5 mM MgCl2; 40 mM HEPES pH 7.4; 1 μM fluorophore, 5 μM RNA.

Assay [15] deals with M12 (delete 2bp in P2; Del-2bp-P2) (RNA, aptamer) GGAAGAUUGUAAACACCGAAAGGGACACUUCC
Put plainly: fluorescence titration, Hill fit. As to conditions: 100 mM KCl, 5 mM MgCl2; 40 mM HEPES pH 7.4; 20 nM RNA.

Assay [16] concerns Clivia_VI (VI_R8) (RNA, aptamer) GGAAGAUUGUAAACAGCGAGAUUGUAAACAGCGAGAUUGUAAACAGCGAGAUUGUAAACAGCGAGAUUGUAAACAGCGAGAUUGUAAACAUGCCGAAAGGCAGACACUCGCGACACUCGCGACACUCGCGACACUCGCGACACUCGCGACACUUUC
In words: fluorescence activation. The settings on record: 100 mM KCl, 5 mM MgCl2; 40 mM HEPES pH 7.4.

The subject of assay [17] is U7C (RNA, aptamer) GGAAGACUGUAAACAUGCCGAAAGGCAGACACUUCC
Put plainly: fluorescence titration, Hill fit. The settings on record: 100 mM KCl, 5 mM MgCl2; 40 mM HEPES pH 7.4; 20 nM RNA.

For assay [18], the system named is M3 (A11C/A12C/A13C) (RNA, aptamer) GGAAGAUUGUCCCCAUGCCGAAAGGCAGACACUUCC
In words: fluorescence activation. The settings on record: 100 mM KCl, 5 mM MgCl2; 40 mM HEPES pH 7.4; 1 μM fluorophore, 5 μM RNA.

Assay [19] concerns Clivia (R8 aptamer, GAAA tetraloop) (RNA, aptamer) GGAAGAUUGUAAACAUGCCGAAAGGCAGACACUUCC
Put plainly: X-ray crystallography, 1.6 Å. The settings on record: Mg2+ (0.05 M MgCl2); 0.1 M HEPES pH 7.5, 30% PEG MME 550, 16 °C.

Assay [20] has as its system M2 (A11G/A12G/A13G) (RNA, aptamer) GGAAGAUUGUGGGCAUGCCGAAAGGCAGACACUUCC
In words: fluorescence activation. As to conditions: 100 mM KCl, 5 mM MgCl2; 40 mM HEPES pH 7.4; 1 μM fluorophore, 5 μM RNA.

The test system of assay [21] is M6 (U8A/A29U) (RNA, aptamer) GGAAGAUAGUAAACAUGCCGAAAGGCAGUCACUUCC
Put plainly: fluorescence activation. As to conditions: 100 mM KCl, 5 mM MgCl2; 40 mM HEPES pH 7.4; 1 μM fluorophore, 5 μM RNA.

Assay [22] concerns U7G (RNA, aptamer) GGAAGAGUGUAAACAUGCCGAAAGGCAGACACUUCC
Put plainly: fluorescence titration, Hill fit. As to conditions: 100 mM KCl, 5 mM MgCl2; 40 mM HEPES pH 7.4; 20 nM RNA.

The subject of assay [23] is M9 (A15C) (RNA, aptamer) GGAAGAUUGUAAACCUGCCGAAAGGCAGACACUUCC
Put plainly: fluorescence activation. The settings on record: 100 mM KCl, 5 mM MgCl2; 40 mM HEPES pH 7.4; 1 μM fluorophore, 5 μM RNA.

The test system of assay [24] is M5 (U8C/A29G) (RNA, aptamer) GGAAGAUCGUAAACAUGCCGAAAGGCAGGCACUUCC
In words: fluorescence activation. As to conditions: 100 mM KCl, 5 mM MgCl2; 40 mM HEPES pH 7.4; 1 μM fluorophore, 5 μM RNA.

`CN1C(=O)/C(=C/c2cc(F)c(O)c(F)c2)N=C1/C=C/c1ccccc1`: in assay [1], the binding result is on record as “yes”.
On the same count and under the same terms, the same measure for `CN1C(=O)/C(=C/c2cc(F)c(O)c(F)c2)N=C1/C=C/c1ccc(C#N)cc1`: “yes”.
On the same count and under the same terms, to `CN1C(=O)/C(=C/c2cc(F)c(O)c(F)c2)N=C1/C=C/c1ccc(O)cc1` belongs “yes”.
Turning to `CN1C(=O)/C(=C/c2ccc(N(C)CCO)cc2)N=C1/C=C/c1ccccc1`, the binding entry in assay [2] is given as “no”; in assay [7], “no”; in [8], “yes”; in assay [9] it was “yes”; in [10] it was “yes”; in assay [12], “yes”. Moreover, the binding result in [13] is given as “no”; in assay [14], “weak”; in assay [16], “yes”; in assay [18], “no”; in assay [19] it was “yes”; in assay [20], “no”. Further, the binding result in assay [21], in [23] and in assay [24] was “no” in each case. Also, the Kd in assay [3] amounted to 61 nM; in assay [4] it was 84 nM; in assay [5], 55 nM; in [6], 71 ± 15 nM; in [11] it was 107 ± 12 nM; in [15] it was 44 nM. The Kd in assay [17] is 46 ± 3 nM; in assay [22], 152 ± 12 nM.
